Experimental data: the supplement of paper PMC10307832

Key:
Assay in all cases: relative viability (nuclei count vs DMSO), 5 days (fraction); higher = more cells survive
[1] = compound: CN1C=C(C2=CC=CC=C21)/C=C\3/C4=C(C=CC=N4)NC3=O + Nc1nc2[nH]cc(CCc3ccc(C(=O)N[C@@H](CCC(=O)O)C(=O)O)cc3)c2c(=O)[nH]1 [Pemetrexed] (partner 0.2 µM)
Method in brief: (§1)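 The day after seeding in 1536-well plates, lung cancer cell lines were treated by pin tool with a single drug, or with a fixed anchor-drug dose together with five library-drug doses (not always all listed) in √10 steps. After 5 days, a combined fix-and-stain solution (final 0.05% Triton X-100, 1% formaldehyde, 1 ug/ml Hoechst) was added. Nuclei counted on 4× images gave relative viability as treated counts over vehicle counts, reported as the median of duplicate plates.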

Trametinib + Alpelisib = compound: CC(=O)Nc1cccc(-n2c(=O)n(C3CC3)c(=O)c3c(Nc4ccc(I)cc4F)n(C)c(=O)c(C)c32)c1 [Trametinib] + Cc1nc(NC(=O)N2CCC[C@H]2C(N)=O)sc1-c1ccnc(C(C)(C)C(F)(F)F)c1 [Alpelisib] (partner 2 µM)
Method in brief: as §1

Trametinib + Foretinib = compound: CC(=O)Nc1cccc(-n2c(=O)n(C3CC3)c(=O)c3c(Nc4ccc(I)cc4F)n(C)c(=O)c(C)c32)c1 [Trametinib] + COc1cc2c(Oc3ccc(NC(=O)C4(C(=O)Nc5ccc(F)cc5)CC4)cc3F)ccnc2cc1OCCCN1CCOCC1 [Foretinib] (partner 0.25 µM)
Method in brief: as §1

Trametinib + Navitoclax = compound: CC(=O)Nc1cccc(-n2c(=O)n(C3CC3)c(=O)c3c(Nc4ccc(I)cc4F)n(C)c(=O)c(C)c32)c1 [Trametinib] + CC1(C)CCC(c2ccc(Cl)cc2)=C(CN2CCN(c3ccc(C(=O)NS(=O)(=O)c4ccc(N[C@H](CCN5CCOCC5)CSc5ccccc5)c(S(=O)(=O)C(F)(F)F)c4)cc3)CC2)C1 [Navitoclax] (partner 0.5 µM)
Method in brief: as §1

| Cell Line | relative viability ([1]; first compound 0.02 µM) | relative viability ([1]; first compound 0.06325 µM) | relative viability ([1]; first compound 0.2 µM) | relative viability ([1]; first compound 0.6325 µM) | relative viability ([1]; first compound 2 µM) | relative viability (Trametinib + Alpelisib; first compound 0.0025 µM) | relative viability (Trametinib + Alpelisib; first compound 0.007906 µM) | relative viability (Trametinib + Alpelisib; first compound 0.025 µM) | relative viability (Trametinib + Alpelisib; first compound 0.07906 µM) | relative viability (Trametinib + Alpelisib; first compound 0.25 µM) | relative viability (Trametinib + Foretinib; first compound 0.0025 µM) | relative viability (Trametinib + Foretinib; first compound 0.007906 µM) | relative viability (Trametinib + Foretinib; first compound 0.025 µM) | relative viability (Trametinib + Foretinib; first compound 0.07906 µM) | relative viability (Trametinib + Foretinib; first compound 0.25 µM) | relative viability (Trametinib + Navitoclax; first compound 0.0025 µM) | relative viability (Trametinib + Navitoclax; first compound 0.007906 µM) | relative viability (Trametinib + Navitoclax; first compound 0.025 µM) | relative viability (Trametinib + Navitoclax; first compound 0.07906 µM) | relative viability (Trametinib + Navitoclax; first compound 0.25 µM) |
| --- | --- | --- | --- | --- | --- | --- | --- | --- | --- | --- | --- | --- | --- | --- | --- | --- | --- | --- | --- | --- |
| NCI-H661 | 1.02 | 0.902 | 0.89 | 0.985 | 0.972 | 0.607 | 0.654 | 0.411 | 0.257 | 0.264 | 0.941 | 1 | 0.794 | 0.751 | 0.62 |  |  |  |  |  |
| CAL-12T | 1.1 | 1.13 | 1.21 | 1.34 | 1.34 | 1.14 | 0.79 | 0.452 | 0.45 | 0.34 | 0.969 | 0.893 | 0.716 | 0.499 | 0.489 | 1.04 | 0.831 | 0.554 | 0.738 | 0.492 |
| HARA | 0.24 | 0.24 |  | 0.263 | 0.216 | 0.758 | 0.657 | 0.44 | 0.498 | 0.241 | 0.834 | 0.555 | 0.58 | 0.515 | 0.232 | 0.984 | 1.1 | 1.14 | 1.06 | 0.976 |
| NCI-H596 | 0.494 | 0.494 | 0.527 | 0.456 | 0.531 | 0.34 | 0.422 | 0.311 | 0.371 | 0.342 | 0.793 | 0.596 | 0.709 | 0.69 | 0.396 | 0.893 | 0.624 | 0.525 | 0.498 | 0.363 |
| LU99A | 0.156 | 0.182 | 0.176 | 0.173 | 0.186 | 0.571 | 0.456 | 0.444 | 0.262 | 0.172 | 0.793 | 0.817 | 0.637 | 0.53 | 0.438 | 0.855 | 0.779 | 0.465 | 0.363 | 0.235 |
| LC-2-ad | 0.287 | 0.255 | 0.26 | 0.271 | 0.285 | 0.864 | 0.452 | 0.662 | 0.408 | 0.233 | 0.792 | 0.726 | 0.57 | 0.477 | 0.409 | 0.35 | 0.306 | 0.34 | 0.285 | 0.173 |
| NCI-H1650 | 0.39 | 0.352 | 0.371 | 0.384 | 0.328 |  |  |  |  |  | 1.18 | 0.857 | 0.894 | 0.838 | 0.506 | 0.94 | 0.857 | 0.816 | 0.473 | 0.35 |
| NCI-H1915 | 0.463 | 0.41 | 0.579 | 0.487 | 0.504 | 1.06 | 0.906 | 0.6 | 0.528 | 0.254 | 1.11 | 0.781 | 0.538 | 0.596 | 0.298 | 0.799 | 0.79 | 0.681 | 0.719 | 0.217 |
| ABC-1 |  |  |  |  |  | 0.729 | 0.703 | 0.564 | 0.583 | 0.554 | 1.04 | 0.834 | 0.715 | 0.891 | 0.685 |  |  |  |  |  |
| HCC-44 | 0.58 | 0.613 | 0.664 | 0.648 | 0.636 | 0.774 | 0.618 | 0.614 | 0.528 | 0.187 |  |  |  |  |  | 1.03 | 0.751 | 0.865 | 0.805 | 0.446 |
| HCC-78 | 0.907 | 0.945 | 0.951 | 0.903 | 0.913 | 0.304 | 0.242 | 0.226 | 0.205 | 0.224 | 0.515 | 0.392 | 0.513 | 0.443 | 0.403 | 0.728 | 0.591 | 0.558 | 0.624 | 0.42 |
| LXF-289 | 0.925 | 0.913 | 0.928 | 0.881 | 0.974 | 0.961 | 0.894 | 0.758 | 0.672 | 0.495 | 0.956 | 0.863 | 0.77 | 0.661 | 0.595 | 0.872 | 0.755 | 0.721 | 0.63 | 0.538 |
| 201T | 0.31 | 0.317 | 0.365 | 0.342 | 0.358 | 1.02 | 0.914 | 0.866 | 0.893 | 0.765 | 1.05 | 1 | 1.02 | 0.815 | 0.715 | 1.17 | 1.1 | 1.13 | 1.08 | 1.09 |
| NCI-H1734 | 0.348 | 0.4 |  | 0.425 | 0.418 | 0.627 | 0.712 |  | 0.631 | 0.444 | 0.968 | 0.781 | 0.582 | 0.607 | 0.446 | 0.865 | 0.736 |  | 0.657 | 0.474 |
| NCI-H1623 |  |  |  |  |  |  |  |  |  |  | 0.782 | 0.591 | 0.532 | 0.437 | 0.727 |  |  |  |  |  |
